Laboratory results taken from US11136320B2, “Fused ring derivative used as FGFR4 inhibitor” (JACOBIO PHARMACEUTICALS CO., LTD., priority 2019, dated 2021).
Structures can show the parent of a compound that is named as a salt. Where two headings read alike, the source gives them in different places. Blank lines part the entries; values can stand above or below the molecule they belong to.

Tests used:
[1] = PK analysis of rats; format: in vivo; details: p.o. (10 mg/kg); for AUC(0-t) / Cmax: rat, plasma, po; for AUC(0-t): read-out: Curve area AUC0-24 h; for Cmax: read-out: Drug concentration in blood Cmax
Method: In the present invention, the pharmacokinetics experiment of the compounds in rats was performed using the SD rats (Vitolihua).
(1) Mode of administration: single gavage administration and intravenous injection administration.
(2) Dosage: 10 mg/kg in the gavage administration, 3 mg/kg in the intravenous injection administration.
Gavage administration: before administration, 15 min, 30 min, 1 h, 2 h, 4 h, 6 h, 8 h, 24 h; […]
(4) Sample processing: 200 μL of orbital blood was collected at each sampling time point. After anticoagulation with heparin, the blood was centrifuged at 5500 rpm for 10 min, and 60 μL of the supernatant was taken and put into the refrigerator at −80° C. for waiting for testing.
Samples obtained after administration of Compound 1 were tested using 4000 LC-MS/MS analyzer, wherein, the chromatographic separation conditions for testing were:
Samples obtained after administration of Compound 7 were tested using 4000 LC-MS/MS analyzer, wherein, the chromatographic separation conditions for testing were:
Samples obtained after administration of Compound 16 were tested using 4000 LC-MS/MS analyzer, wherein, the chromatographic separation conditions for testing were: […]

[2] = system: Hepatoma cell Hep3B (high expression of FGFR4 and FGF19); assay: Hepatoma cell proliferation inhibition experiment (MTS method); format: cell-based; details: for IC50: Homo sapiens, Hep3B, read-out: Hep3B(IC50 μM)
Source text: In this experiment, the MTS method was used to test the inhibitory effect of the compounds on the proliferation of Hepatoma cell Hep3B (high expression of FGFR4 and FGF19), and the half inhibitory concentration IC50 of the compounds to Hep3B was obtained. The Hep3B cell line was purchased from ATCC, and the complete culture medium of the Hep3B cell line was MEM+10% FBS+1% PS. MEM cell culture medium, fetal bovine serum, and trypsin were purchased from Gibco, cell culture flasks were purchased from Greiner, and disposable Cell Counting Plate and Taittinger Blue Solution were purchased from Bio-Rad.
(1) 100 μl Hepatoma cell Hep3B suspension was seeded in a 96-well cell culture plate, and the density of each well was 2.0×10^4 cells/ml.
(3) A mixture of MTS (3-(4,5-dimethylthiazol-2-yl)-5-(3-carboxymethoxyphenyl)-2-(4-sulfophenyl)-2H-tetrazolium)/PMS (phenazine methosulfate) was added into each well for coloration, and MTS/PMS in the mixture was at a ratio of 20:1 (ml:ml). 30 μl of the mixture was added into each well of the culture plate above mentioned in step (2), then the culture plate was incubated for 3 h in the incubator.
(5) The inhibition rate was calculated by the […];
(6) According to the inhibition rate of the different concentrations, the IC50 values of the compounds were obtained by curve fitting.

[3] = biological target: T1, FGFR4 kinase (Homo sapiens (Human), UniProt P22455); assay: biochemical
[4] = biological target: T1, FGFR4 kinase

T1 sequence (P22455 22-802): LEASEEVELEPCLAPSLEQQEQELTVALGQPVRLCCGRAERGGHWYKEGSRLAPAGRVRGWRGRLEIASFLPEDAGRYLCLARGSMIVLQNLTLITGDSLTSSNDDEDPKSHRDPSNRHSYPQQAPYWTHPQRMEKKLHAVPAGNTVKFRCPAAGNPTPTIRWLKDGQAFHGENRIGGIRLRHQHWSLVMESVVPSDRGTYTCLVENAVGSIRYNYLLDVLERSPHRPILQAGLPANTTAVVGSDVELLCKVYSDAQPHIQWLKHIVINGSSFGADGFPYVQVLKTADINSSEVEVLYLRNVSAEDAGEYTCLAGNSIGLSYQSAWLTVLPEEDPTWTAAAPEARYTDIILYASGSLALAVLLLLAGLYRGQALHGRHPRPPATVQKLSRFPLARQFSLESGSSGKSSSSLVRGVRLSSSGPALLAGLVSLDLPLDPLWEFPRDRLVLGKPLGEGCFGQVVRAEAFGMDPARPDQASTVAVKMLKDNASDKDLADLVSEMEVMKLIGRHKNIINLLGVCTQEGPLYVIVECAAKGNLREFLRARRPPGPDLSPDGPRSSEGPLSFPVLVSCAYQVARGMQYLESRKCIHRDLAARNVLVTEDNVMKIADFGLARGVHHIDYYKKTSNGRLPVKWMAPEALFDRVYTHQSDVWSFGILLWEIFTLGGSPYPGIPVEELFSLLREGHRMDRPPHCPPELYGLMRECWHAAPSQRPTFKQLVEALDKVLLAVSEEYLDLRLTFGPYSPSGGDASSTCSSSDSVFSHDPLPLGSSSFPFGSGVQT

SMILES: CSCCNc1cc(NC(=O)N2CCCc3cc(CN4CCN(C)CC4=O)c(C=O)nc32)ncc1C#N [Compound 1]
exposure amount AUC0-24 h and maximum drug concentration in blood Cmax compared with the reference compound ([1]; SD rats): significantly higher than the reference compound | AUC(0-t) ([1]; Sprague-Dawley (SD)): 2370 ng·h/mL | Cmax ([1]; Sprague-Dawley (SD)): 833 ng/mL | IC50 ([2]; 120 h incubation): 0.023 µM | IC50 [3]: 1.5 nM

IC50 ([2]; 120 h incubation): 0.028 µM
SMILES: CSCCOc1cc(NC(=O)N2CCCc3cc(CN4CCN(C)CC4=O)c(C=O)nc32)ncc1C#N [Compound 2]

SMILES: CSC(C)(C)CNc1cc(NC(=O)N2CCCc3cc(CN4CCN(C)CC4=O)c(C=O)nc32)ncc1C#N [Compound 6, N-(5-cyano-4-((2-methyl-2-(methylthio)propyl)amino)pyridin-2-yl)-7-formyl-6-((4-methyl-2-oxopiperazin-1-yl)methyl)-3,4-dihydro-1,8-naphthyridine-1 (2H)-carboxamide]
IC50 ([2]; 120 h): 0.049 µM | IC50 [3]: 2.1 nM | inhibitory effect on FGFR4 compared with the reference compound [4]: better inhibitory effect on FGFR4 than the reference compound

IC50 ([2]; 120 h incubation): 0.008 µM
SMILES: CO[C@@H]1CCN(Cc2cc3c(nc2C=O)N(C(=O)Nc2cc(NCCSC)c(C#N)cn2)CCC3)C1=O [Compound 8, (R)-N-(5-cyano-4-((2-(methylthio)ethyl)amino)pyridin-2-yl)-7-formyl-6-((3-methoxy-2-oxopyrrolidin-1-yl)methyl)-3,4-dihydro-1,8-naphthyridine-1(2H)-carboxamide]
inhibitory effect on Hepatoma cell Hep3B compared with the reference compound [2]: better inhibitory effect

IC50 ([2]; 120 h incubation): 0.009 µM
SMILES: CO[C@@H]1CCN(Cc2cc3c(nc2C=O)N(C(=O)Nc2cc(N[C@H](C)CSC)c(C#N)cn2)CCC3)C1=O [Compound 9, N-(5-cyano-4-(((R)-1-(methylthio)propan-2-yl)amino)pyridin-2-yl)-7-formyl-6-(((R)-3-methoxy-2-oxopyrrolidin-1-yl)methyl)-3,4-dihydro-1,8-naphthyridine-1(2H)-carboxamide]
inhibitory effect on Hepatoma cell Hep3B compared with the reference compound [2]: better inhibitory effect

SMILES: CSC[C@H](C)Nc1cc(NC(=O)N2CCCc3cc(CN4CCN(C)CC4=O)c(C=O)nc32)ncc1C#N [Compound 11, (S)-N-(5-cyano-4-((1-(methylthio)propan-2-yl)amino)pyridin-2-yl)-7-formyl-6-((4-methyl-2-oxopiperazin-1-yl)methyl)-3,4-dihydro-1,8-naphthyridine-1(2H)-carboxamide]
IC50 ([2]; 120 h incubation): 0.035 µM

AUC(0-t) ([1]; SD rats): 3670 ng·h/mL | Cmax ([1]; SD rats): 936 ng/mL | IC50 ([2]; 120 h incubation): 0.029 µM
SMILES: CSCCNc1cc(NC(=O)N2CCCc3cc(CN4CCCCOC4=O)c(C=O)nc32)ncc1C#N [Compound 16, N-(5-cyano-4-((2-(methylthio)ethyl)amino)pyridin-2-yl)-7-formyl-6-((2-oxo-1,3-oxazepan-3-yl)methyl)-3,4-dihydro-1,8-naphthyridine-1(2H)-carboxamide]
exposure amount AUC0-24 h and maximum drug concentration in blood Cmax compared with the reference compound ([1]; SD rats): significantly higher than the reference compound

SMILES: CN1CCN(Cc2cc3c(nc2C=O)N(C(=O)Nc2cc(NC4CCSCC4)c(C#N)cn2)CCC3)C(=O)C1 [Compound 20, N-(5-cyano-4-((tetrahydro-2H-thiopyran-4-yl)amino)pyridin-2-yl)-7-formyl-6-((4-methyl-2-oxopiperazin-1-yl)methyl)-3,4-dihydro-1,8-naphthyridine-1(2H)-carboxamide]
exposure amount AUC0-24 h and maximum drug concentration in blood Cmax compared with the reference compound ([1]; SD rats): significantly higher than the reference compound | AUC(0-t) ([1]; SD rats): 2000 ng·h/mL | Cmax ([1]; SD rats): 514 ng/mL | inhibitory effect on Hepatoma cell Hep3B compared with the reference compound [2]: better inhibitory effect | IC50 ([2]; 120 h incubation): 0.021 µM | IC50 [3]: 4.4 nM

SMILES: CN1CCN(Cc2cc3c(nc2C=O)N(C(=O)Nc2cc(NCC[S+](C)[O-])c(C#N)cn2)CCC3)C(=O)C1 (stereo not drawn) [Compound 27, N-(5-cyano-4-((2-(methyl-sulfinyl)ethyl)amino)pyridin-2-yl)-7-formyl-6-((4-methyl-2-oxopiperazin-1-yl)methyl)-3,4-dihydro-1,8-naphthyridine-1(2H)-carboxamide]
IC50 ([2]; 120 h incubation): 0.282 µM | IC50 [3]: 2.4 nM | inhibitory effect on FGFR4 compared with the reference compound [4]: better inhibitory effect on FGFR4 than the reference compound

IC50 [3]: 3 nM
SMILES: CN1CCN(Cc2cc3c(nc2C=O)N(C(=O)Nc2cc(NCc4cncs4)c(C#N)cn2)CCC3)C(=O)C1 [Compound 55, N-(5-cyano-4-((thiazol-5-yl-methyl)amino)pyridin-2-yl)-7-formyl-6-((4-methyl-2-oxopiperazin-1-yl)methyl)-3,4-dihydro-1,8-naphthyridine-1(2H)-carboxamide]

IC50 [3]: 2.1 nM
SMILES: Cc1ccc(CNc2cc(NC(=O)N3CCCc4cc(CN5CCN(C)CC5=O)c(C=O)nc43)ncc2C#N)s1 [Compound 58, N-(5-cyano-4-(((5-methyl-thiophen-2-yl)methyl)amino)pyridin-2-yl)-7-formyl-6-((4-methyl-2-oxopiperazin-1-yl)methyl)-3,4-dihydro-1,8-naphthyridine-1(2H)-carboxamide]
inhibitory effect on FGFR4 compared with the reference compound [4]: better inhibitory effect on FGFR4 than the reference compound

IC50 [3]: 2.1 nM
SMILES: CN1CCN(Cc2cc3c(nc2C=O)N(C(=O)Nc2cc(NCc4cscn4)c(C#N)cn2)CCC3)C(=O)C1 [Compound 59, N-(5-Cyano-4-((thiazol-4-yl-methyl)amino)pyridin-2-yl)-7-formyl-6-((4-methyl-2-oxopiperazin-1-yl)methyl)-3,4-dihydro-1,8-naphthyridine-1(2H)-carboxamide]
inhibitory effect on FGFR4 compared with the reference compound [4]: better inhibitory effect on FGFR4 than the reference compound

IC50 [3]: 3 nM
SMILES: CC(Nc1cc(NC(=O)N2CCCc3cc(CN4CCN(C)CC4=O)c(C=O)nc32)ncc1C#N)c1nccs1 (stereo not drawn) [Compound 60, N-(5-cyano-4-((1-(thiazol-2-yl)ethyl)amino)pyridin-2-yl)-7-formyl-6-((4-methyl-2-oxopiperazin-1-yl)methyl)-3,4-dihydro-1,8-naphthyridine-1(2H)-carboxamide]

IC50 ([2]; 120 h incubation): 0.026 µM
SMILES: CN1CCN(Cc2cc3c(nc2C=O)N(C(=O)Nc2cc(NCc4ccsn4)c(C#N)cn2)CCC3)C(=O)C1 [Compound 68, N-(5-Cyano-4-((isothiazol-3-yl-methyl)amino)pyridin-2-yl)-7-formyl-6-((4-methyl-2-oxopiperazin-1-yl)methyl)-3-1,4-dihydro-1,8-naphthyridine-1(2H)-carboxamide]

SMILES: CCSCCNc1cc(NC(=O)N2CCCc3cc(CN4CCN(C)CC4=O)c(C=O)nc32)ncc1C#N [Compound 71, N-(5-cyano-44 (2-(ethylthio)ethypamino)pyridin-2-yl)-7-formyl-64 (4-methyl-2-oxopiperazin-1-yl)methyl)-3,4-dihydro-1,8-naphthyridine-1 (2H)-carboxamide hydrochloride]
exposure amount AUC0-24 h and maximum drug concentration in blood Cmax compared with the reference compound ([1]; SD rats): significantly higher than the reference compound | AUC(0-t) ([1]; Sprague-Dawley (SD)): 1950 ng·h/mL | Cmax ([1]; Sprague-Dawley (SD)): 657 ng/mL | IC50 ([2]; 120 h): 0.049 µM | IC50 [3]: 2.4 nM

IC50 ([2]; 120 h incubation): 0.06 µM
SMILES: CSCCNc1cc(NC(=O)N2CCCc3cc(CN(C)C(=O)[C@H]4CCCO4)c(C=O)nc32)ncc1C#N [Compound 74, (R)-N-(5-cyano-4-((2-(methylthio)ethyl)amino)pyridin-2-yl)-7-formyl-6-((N-methyltetrahydrofuran-2-carboxamido)methyl)-3,4-dihydro-1,8-naphthyridine-1(2H)-carboxamide hydrochloride]

SMILES: CSCC(C)Nc1cc(NC(=O)N2CCCc3cc(CN4CCN(C)CC4=O)c(C=O)nc32)ncc1C#N (stereo not drawn) [Compound 82, N-(5-cyano-4-((1-(methyl-thio)propan-2-yl)amino)pyridin-2-yl)-7-formyl-6-((4-methyl-2-oxopiperazin-1-yl)methyl)-3,4-dihydro-1,8-naphthyridine-1(2H)-carboxamide]
inhibitory effect on Hepatoma cell Hep3B compared with the reference compound [2]: better inhibitory effect | IC50 ([2]; 120 h incubation): 0.02 µM
